One assay addresses T1, r-NAAA (Rattus norvegicus, UniProt Q5KTC7).
T1 construct: Lysosomal NAAA protein preparation was obtained by homogenizing male Sprague-Dawley rat lungs; tissue Charles River; host or cells: male Sprague-Dawley rat lung, soluble lysosomal fraction
T1 sequence (Q5KTC7 34-362): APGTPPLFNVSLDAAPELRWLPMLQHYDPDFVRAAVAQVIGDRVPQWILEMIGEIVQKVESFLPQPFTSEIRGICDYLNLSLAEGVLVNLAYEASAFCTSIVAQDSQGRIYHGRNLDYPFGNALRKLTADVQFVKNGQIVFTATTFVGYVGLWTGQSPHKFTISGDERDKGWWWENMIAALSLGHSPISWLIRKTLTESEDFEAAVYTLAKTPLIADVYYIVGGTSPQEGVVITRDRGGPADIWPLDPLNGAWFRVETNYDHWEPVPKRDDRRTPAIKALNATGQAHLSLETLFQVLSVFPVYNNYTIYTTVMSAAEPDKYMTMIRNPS
Kind of assay: UPLC/MS r-NAAA assay. The assay is classed as biochemical. The method, then: Lysosomal NAAA protein preparation was obtained by homogenizing male Sprague-Dawley rat lungs (Charles River) in 20 mM Tris-HCl buffer pH 7.4 containing 0.32M sucrose. Samples were centrifuged at 800×g for 15 min at 4° C. Supernatants were centrifuged at 12,000×g for 30 min at 4° C. Pellets were then resuspended in PBS pH 7.4 and subjected to a freeze/thaw cycle at −80° C. The suspension was finally centrifuged at 105,000 g for 1 h at 4° C. The supernatant was used in enzymatic assays.
NAAA preparations were pre-incubated with various concentrations of test compounds or vehicle control in 100 mM NaH2PO4/Citrate buffer, 1% Triton-X, 3 mM DTT (pH 4.5) for 30 min at 37° C. Samples were incubated with heptadecenoylethanolamide (50 μM, Avanti Polar Lipids) at 37° C. for 30 min. The reaction was terminated by addition of cold methanol containing heptadecanoic acid (NuCheck Prep) as internal standard. Samples were analyzed by UPLC/MS (Acquity, Waters). Heptadecenoic and heptadecanoic acids were eluted on an Acquity UPLC BEH C18 column (50 mm length, 2.1 mm i.d., 1.7 μm pore size, Waters) isocratically at 0.5 mL/min for 1.5 min with a solvent mixture of 95% methanol and 5% H2O, both containing 0.25% Acetic Acid and 5.0 mM ammonium acetate. The column temperature was 40° C. Electrospray ionization was in the negative mode, capillary voltage was 0.5 kV, cone voltage was […], desolvation temperature was 500° C. N2 was used as drying gas at a flow rate of 1000 L/hour and a temperature of 500° C. The [M−H]^− ion was monitored in the selected-ion monitoring mode (m/z values: heptadecenoic acid 267.37, heptadecanoic acid 269.37). Calibration curves were generated using commercial heptadecenoic acid (NuCheck Prep) Inhibition of NAAA activity was calculated as reduction of heptadecenoic acid in the samples compared to vehicle controls. IC50 values were calculated by non-linear regression analysis of log [concentration]/inhibition curves using GraphPad Prism 5 (GraphPad Software Inc., CA—USA) applying a standard slope curve fitting.

A further assay deals with T2, human NAAA (Homo sapiens, UniProt Q02083).
T2 construct: made in house; host or cells: HEK293 cells, stably transfected; soluble fraction after freeze/thaw
T2 sequence (Q02083 29-359): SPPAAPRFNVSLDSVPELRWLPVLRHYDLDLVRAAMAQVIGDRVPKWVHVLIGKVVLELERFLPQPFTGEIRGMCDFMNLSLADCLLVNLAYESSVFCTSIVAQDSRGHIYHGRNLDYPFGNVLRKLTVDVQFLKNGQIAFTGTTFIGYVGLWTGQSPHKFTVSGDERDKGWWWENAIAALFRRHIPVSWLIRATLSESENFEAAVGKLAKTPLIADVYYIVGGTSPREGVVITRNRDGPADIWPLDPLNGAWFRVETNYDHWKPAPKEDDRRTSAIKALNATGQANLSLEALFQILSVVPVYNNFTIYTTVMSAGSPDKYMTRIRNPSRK
Kind of assay: Fluorogenic h-NAAA assay. The format is biochemical. The note with it: for IC50: recombinant HEK-hNAAA preparation. The method, then:
Hek293 cells stably transfected with the human NAAA coding sequence cloned from a human spleen cDNA library were used as enzyme source. Recombinant HEK-hNAAA pellets were resuspended in homogenizing buffer, and sonicated. Samples were centrifuged at 800×g for 15 min at 4° C. and the supernatants were ultracentrifuged at 12,000×g for 30 min at 4° C. The pellets were resuspended in PBS pH 7.4 on ice and subjected to a freeze/thaw cycle at −80° C. (two freeze/thaw cycles at −80° C. for Examples 34-37). The suspension was finally centrifuged at 105,000×g for 1 h at 4° C. Protein concentration was measured and samples stored at −80° C. until use.
The assay was run in Optiplate 96-wells black plates, in a total reaction volume of 200 μL. NAAA protein preparation (4.0 μg for Examples except 34-37, which were 20.0 μg) was pre-incubated for 10 min with various concentrations of test compounds or vehicle control (5% DMSO) in 100 mM citrate/phosphate buffer (pH 4.5) containing 3.0 mM DTT, 0.1% Triton X-100, 0.05% BSA, 150 mM NaCl. N-(4-methyl-2-oxo-chromen-7-yl)-hexadecanamide was used as a substrate (5.0 μM) and the reaction carried over for 30 min at 37° C. The samples were then read in a Perkin Elmer Envision plate reader using an excitation wavelength of 360 nm and emission 460 nm. IC50 values were calculated by non-linear regression analysis of log [concentration]/inhibition curves using GraphPad Prism 5 (GraphPad Software Inc., CA—USA) applying a standard slope curve fitting.

In assay [1] the test system is carrageenan-induced paw edema and heat hyperalgesia. Put plainly: Carrageenan-induced inflammation (paw edema, heat hyperalgesia). The format is in vivo. The conditions noted are these: mice, oral administration (p.o.), 3-30 mg/kg, dose- and time-dependent. Background: Carrageenan injected into the paw causes an acute inflammation.
Assay [2] has as its target T3, Rat AC (r-AC), Acid Ceramidase (Rattus norvegicus, UniProt Q6P7S1).
T3 construct: V5 (C); His (C); made in house; host or cells: HEK293 cells transfected with pEF6-rAC-V5/His, selected with G418; soluble fraction after freeze/thaw
T3 sequence (Q6P7S1 21-394): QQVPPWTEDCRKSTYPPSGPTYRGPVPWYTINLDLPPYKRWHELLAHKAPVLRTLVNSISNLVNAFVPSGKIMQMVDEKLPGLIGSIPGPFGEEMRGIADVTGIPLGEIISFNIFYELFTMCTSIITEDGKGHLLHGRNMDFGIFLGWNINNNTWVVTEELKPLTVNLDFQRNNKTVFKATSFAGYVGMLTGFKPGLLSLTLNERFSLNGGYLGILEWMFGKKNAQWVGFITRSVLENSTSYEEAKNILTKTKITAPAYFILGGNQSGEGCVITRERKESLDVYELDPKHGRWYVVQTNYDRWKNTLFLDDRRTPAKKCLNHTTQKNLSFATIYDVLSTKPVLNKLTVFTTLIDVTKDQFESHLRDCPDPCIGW
Put plainly: Rat AC (r-AC) assay, UPLC/MS. The assay is classed as biochemical. The note with it: read-out: r-AC UPLC/MS assay % inhib. The method, then:
The selectivity of selected compounds versus Acid Ceramidase (AC) was determined.
Rat AC (r-AC) was cloned from a brain cDNA library using primers based on the sequence obtained from the National Center for Biotechnology Information (NCBI) database: 5′rAC (5′-GACCATGCTGGGCCGTAGT-3′) (SEQ ID NO:1) and 3′rAC (5′-CCAGCCTATACAAGGGTCT-3′) (SEQ ID NO:2). The PCR (High Fidelity PCR Master, Roche) product was subcloned into a pEF6-V5/His vector (Invitrogen) to construct a mammalian expression vector encoding V5/His-tagged rat AC. HEK293 cells were transfected with pEF6-rAC-V5/His using Super-Fect reagent (Qiagen) and screened with G418 (0.3 mg/mL). Cells were suspended in 20 mM Tris HCl (pH 7.5) containing 0.32M sucrose, sonicated and centrifuged at 800×g for 15 min at 4° C. The supernatants were centrifuged again at 12,000×g for 30 min at 4° C. The pellets were suspended in phosphate-buffered saline (PBS) and subjected to 2 freeze-thaw cycles at −80° C. The suspensions were centrifuged at 105,000×g for 1 hour at 4° C. The supernatants containing recombinant AC were kept at −80° C. until use. Protein concentration was measured using the bicinchoninic acid (BCA) assay (Pierce). Recombinant rat AC (50 μg) was preincubated with inhibitors (final DMSO concentration 1%) in assay buffer (100 mM sodium phosphate, 0.1% Nonidet P-40, 150 mM NaCl, 3 mM DTT, 100 mM sodium citrate, pH 4.5) for 30 min at 37° C. Reactions were started by the addition of 100 μM N-lauroyl ceramide (Nu-Chek Prep, Elysian, Minn.) and carried on for 30 min at 37° C. Reactions were stopped by addition of a mixture of chloroform/methanol (2:1, vol/vol) containing 1 nmol of heptadecanoic acid (HDA; NuChek Prep). The organic phases were collected, dried under N2, and analyzed by LC-MS in the negative-ion mode using […] (HDA) as internal standard (m/z=199 for lauric acid, m/z=269 for HDA). HDA was eluted on an XDB Eclipse C18 column isocratically at 2.2 mL/min for 1 min with a solvent mixture of 95% methanol and 5% water, both containing 0.25% acetic acid and 5 mM ammonium acetate. The column temperature was 50° C. Electrospray ionization (ESI) was in the negative mode, capillary voltage as 4 kV, and fragmentor voltage was 100 V. N2 was used as drying gas at a flow rate of 13 L/min and a temperature of 350° C. Nebulizer pressure was set at 60 psi. We monitored […] in the selected-ion monitoring (SIM) mode using HDA as internal standard. Calibration curves were generated using commercial lauric acid (Nu-Chek Prep; m/z=199).

Broadly, the IC50 is the concentration that gives 50% inhibition.

SMILES strings stand for the structures.

Consider `CCCCC/C=C/CC(=O)N[C@H]1CNC1=O` [Example 5, (E)-N-[(3S)-2-Oxoazetidin-3-yl]-non-3-enamide], for which the concentration for half-maximal inhibition (IC50) against r-NAAA (rat lung lysosomal NAAA preparation) turned out to be 2.3 µM. Moreover, the IC50 at human NAAA came to 1.34 µM. In addition, in assay [1], the heat hyperalgesia entry is listed as “markedly attenuated” and the paw edema result was “markedly attenuated”.
`O=C(CCCCCCC1CCCCC1)N[C@H]1CNC1=O` [Example 30, 7-Cyclohexyl-N-[(3S)-2-oxoazetidin-3-yl]-heptanamide]: on human NAAA, the IC50 turned out to be 0.21 µM. For the same compound, the inhibition at 1 µM in assay [2] is 45%.
With `CCCCCCCCCC(=O)N[C@H]1CNC1=O` [Example 23, N-[(3S)-2-Oxoazetidin-3-yl]-decanamide], at human NAAA, the IC50 came to 0.086 µM. For the same compound, the inhibition at 1 µM in assay [2] is 70%.
Turning to `CCCCCCCCC(=O)N(C)[C@H]1CNC1=O` [Example 27, N-Methyl-N-[(3S)-2-Oxoazetidin-3-yl]-nonanamide], the inhibition at 3 µM on r-NAAA (@ 3 μM, read-out: r-NAAA UPLC/MS assay % inhib.) worked out at 40%. Further, at human NAAA (@ 2.5 μM, read-out: h-NAAA Fluorogenic assay % inhib.), the inhibition at 2.5 µM is 20%.

For the origin of these results see patent US9908848B2, “Amide derivatives of lactam based N-acylethanolamine acid amidase (NAAA) inhibitors” (The Regents of the University of California, priority 2013, dated 2018).
